In patent US9546188B2, “Complexes of germanium with amino acids and carboxylic acids and method for preparing same” (OBSCHESTVO S OGRANICHENNOI OTVETSTVENNOSTYU “WDS FARMA”, priority 2012, dated 2017):

Tests used:
[1] = room temperature
[2] = test system: oval cancer and malignant tumors of the uterus; conditions: cited from earlier work
[3] = test system: and malignant tumors of the uterus; conditions: six patients, 100 mg orally twice daily; cited from earlier work

water solubility [1]	SMILES	infiltration in post-operational examination ([2]; examination one month later)	health of patients ([2]; six patients, 100 mg orally as 10% solution twice daily, tumors removed surgically)	toxic side effects ([2]; six patients, 100 mg orally twice daily)	exudate in the abdominal cavity or internal pelvic cavity [3]
0.2%	O=C(O)CCCCCCCC(=O)O [azelaic acid]				
	N[C@@H](CC(=O)O)C(=O)O.[Ge] [germanium compound with aspartic acid]	None patients showed infiltration	noticeable improvement in health	no toxic side effects	five patients did not show exudate
